What was measured:
[1] = target: T1, AR in stickleback kidney cytosolic extracts (Gasterosteus aculeatus, UniProt Q801Z1); experiment: Ligand competition assay with 1 nM [3H]-DHT, kidney cytosolic extracts; format: binding, three-spined stickleback (Gasterosteus aculeatus)
T1 sequence (Q801Z1 1-682): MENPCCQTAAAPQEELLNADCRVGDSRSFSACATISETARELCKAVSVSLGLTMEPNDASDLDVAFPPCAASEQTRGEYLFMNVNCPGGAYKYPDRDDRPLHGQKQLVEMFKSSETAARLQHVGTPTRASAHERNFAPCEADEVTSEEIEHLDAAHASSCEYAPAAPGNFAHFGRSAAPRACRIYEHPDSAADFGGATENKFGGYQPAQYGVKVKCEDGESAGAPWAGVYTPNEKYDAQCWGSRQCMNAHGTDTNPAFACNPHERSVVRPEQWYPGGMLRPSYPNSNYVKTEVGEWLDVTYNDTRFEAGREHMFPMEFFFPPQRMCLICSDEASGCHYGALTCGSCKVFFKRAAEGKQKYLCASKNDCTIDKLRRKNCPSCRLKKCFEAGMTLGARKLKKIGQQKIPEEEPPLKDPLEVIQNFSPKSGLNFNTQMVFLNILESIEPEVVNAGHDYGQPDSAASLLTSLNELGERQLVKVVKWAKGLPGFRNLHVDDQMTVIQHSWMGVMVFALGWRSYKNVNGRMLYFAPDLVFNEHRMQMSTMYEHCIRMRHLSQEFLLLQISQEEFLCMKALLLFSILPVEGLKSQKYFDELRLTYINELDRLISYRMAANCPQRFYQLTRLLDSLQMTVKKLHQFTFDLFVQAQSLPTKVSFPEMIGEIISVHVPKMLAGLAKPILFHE
Experimental: (§1) The steroid specificity of receptor binding was examined using a competitive binding assay. […] Following incubation, the reaction was terminated by addition of DCC and centrifugation and the specific binding in each tube was determined as described above.

[2] = test system: rainbow trout ARα; conditions: COS-1 cell line; read-out: IC50 (ligand binding); cited from earlier work
[3] = test system: stickleback ARβ2; experiment: ARE-luciferase trans-activation assay, stickleback ARβ2 in transfected HepG2 and ZFL cells; format: cell-based, three-spined stickleback (Gasterosteus aculeatus); conditions: 40 h, versus control
Experimental: Two liver epithelial cell lines were used to test receptor activity. HepG2 cells (ATCC, Manassas, VA) were maintained in DMEM supplemented with 10% FCS and non-essential amino acids. ZFL cells (ATCC) were maintained in 50% L-15 Leibovitz, 15% […] and 35% DMEM supplemented with 10% FCS (Gibco, Paisley, Scotland, UK) and 50 ng ml-1 EGF (Sigma). Cells were cultured at 37°C (HepG2) or 28°C (ZFL) in 5% CO2. The transfection experiments were initiated by replacing the tissue culture medium with fresh phenol-free medium supplemented with charcoal stripped FCS and the cells were seeded on 24-well plates. Transfections were performed at 90–95% confluence using 1,5 μl Lipofectamine 2000 (Invitrogen, Carlsbad, CA, USA) and 0,6 μg DNA per well. Transfected DNA contained 60 ng pRL (Promega), 270 ng androgen response element (ARE) luciferase reporter vector, 270 ng stickleback ARβ2 expression vector or 270 ng human AR expression vector (pCMVhAR) while 270 ng empty TNT cloning vector was used to control background luciferase levels following transfections. Two different ARE containing promoter constructs were tested, one containing 3 separate ARE (HRE; slp-ARU) and a second one construct (slp-HRE2) containing 4 copies of the ARE with high affinity for R1881, a synthetic androgen, and low affinity for dexamethasone, a synthetic glucocorticoid.
After 16 h the transfection medium was replaced with fresh phenol-free medium, supplemented with charcoal stripped FCS, containing different steroid hormones. The cells were exposed to the hormones for 40 h and luciferase levels were detected using the Dual Luciferase Assay kit (Promega) in a TD 20/20 Luminometer (Turner Designs, Sunnyvale, CA). For each cell line, transfection assay was performed for each concentration with n = 4 and the luciferase value of each assay were normalized to its corresponding Renilla luciferase activity. Each experiment was repeated a minimum of 3 times. The fold-induction is presented as luciferase values normalized against the control. The control levels were arbitrarily set to 1.0 for each cell line.

[4] = test system: AR protein and AR mRNA in stickleback kidney; experiment: Hormone regulation of kidney AR protein (radioreceptor assay) and AR mRNA (slot blot); format: in vivo, three-spined stickleback (Gasterosteus aculeatus); conditions: data not shown; for regulation of AR protein (radioreceptor assay): sticklebacks exposed for 6 days
Experimental: (§2) The fish were anesthetized with 0.1% (v/v) 2-phenoxyethanol (Sigma, St. Louis, MO, USA) and implanted intraperitoneally with Silclear silicone tubing (10-mm length, 0.6-mm inner diameter, 1.2-mm outer diameter) containing steroids dissolved in cocoa butter. […] KA was used as this steroid is converted into KT by the fish. Tubes containing cocoa butter alone were used as controls. Following implantation the fish were maintained in 50-liter aquaria containing brackish water (0.5% salinity) at 20°C under LD 16:8 h. At sampling fish were decapitated and the kidneys were excised, frozen using liquid nitrogen, and stored at -70°C. A number of experiments were performed as follows. Spiggin mRNA was measured in post-breeding females that were dissected 2 days following implantation of tubes. Cytosolic androgen-receptors were measured in females and in castrated males. Males were castrated under anesthesia as above, by making a 1.5 mm long incision into the abdominal cavity on each side and removing the testes using forceps. The females and the castrated males were implanted with control and high dose tubes and dissected after 6 days. AR mRNA was studied in females implanted for 12 h, 2 and 16 days (separate experiments) with control and high dose tubes and in males castrated as above and implanted for 10 days with control tubes and high doses of KA or E2.
(§3) Total RNA was extracted using Tri Reagent™ (Sigma). Aliquots of 10 μg of total RNA were mixed with denaturing solution (6 × SSC, 7% (v/v) formaldehyde) and transferred onto a nylon membrane (Amersham Pharmacia Biotech) using a Minifold II Slot Blot Apparatus (Schleicher and Schuell, Keene, NH, USA). Membranes were probed using either a randomly primed [α-^32P]-dCTP radiolabelled AR cDNA fragment (918 base pairs) that was isolated by reverse transcriptase-polymerase chain reaction and sequenced as above, or a randomly primed [α-^32P]-dCTP radiolabelled spiggin-α cDNA. Hybridizations were performed at 65°C overnight (6 × SCC, 0.1% (w/v) SDS, 100 μg ml^-1 tRNA, and 5 × Denhardt's solution). The membranes were washed for 2 × 30 minutes at 42°C and 65°C in 0.1 × SCC, 0.1% (w/v) SDS whereafter Hyperfilm™-MP film was exposed at -70°C. The films were visualized using Curix 60 Film Developer. Following AR and spiggin mRNA determination the membranes were stripped and analyzed for 18S rRNA using a cDNA fragment as internal control. Each AR or spiggin transcript was then semi-quantified using Quantity ONE 4.2.3 (Bio-Rad, Laboratories, Inc, Hercules, CA, USA) in relation to its internal 18S transcript.
Aliquots (250 μl) of the nuclear or cytosolic preparations were added to each tube, the tubes were vortexed and incubated over night at 4°C. To stop the binding reaction, 250 μl DCC was added to each tube. The tubes were vortexed and the suspensions were incubated for 5 min at 4°C, before spinning at 3,000 × g at 4°C for 5 min. The supernatants were decanted into 7 ml scintillation vials, 5 ml of standard scintillation cocktail was added and the radioactivity in each sample was measured in a liquid scintillation counter (Beckman LS 6000SC, Beckman Instruments, Fullerton, CA). The procedure used for the expressed recombinant ARβ2 was modified as follows. […] The expressed proteins were diluted 1:100 and aliquots (100 μl) were added to each reaction tube. The tubes were vortexed and incubated over night at 4°C. To stop the binding reaction, 200 μl DCC was added to each tube. The tubes were vortexed and the suspension were incubated for 5 min at 4°C, before spinning at 3,000 × g at 4°C for 5 min. 250 μl of the supernatant was transferred into 5 ml scintillation vials and 4 ml of standard scintillation cocktail was added before the radioactivity in each sample was measured in a liquid scintillation counter (Wallac 1409, Wallac Oy, Turku, Finland).

[5] = target: T2, stickleback ARβ2 (reticulocyte lysate) (Gasterosteus aculeatus, UniProt Q801Z2); experiment: Ligand competition assay with 1 nM [3H]-DHT, ARβ2 containing reticulocyte extract; format: binding, three-spined stickleback (Gasterosteus aculeatus)
T2 sequence (Q801Z2 1-735): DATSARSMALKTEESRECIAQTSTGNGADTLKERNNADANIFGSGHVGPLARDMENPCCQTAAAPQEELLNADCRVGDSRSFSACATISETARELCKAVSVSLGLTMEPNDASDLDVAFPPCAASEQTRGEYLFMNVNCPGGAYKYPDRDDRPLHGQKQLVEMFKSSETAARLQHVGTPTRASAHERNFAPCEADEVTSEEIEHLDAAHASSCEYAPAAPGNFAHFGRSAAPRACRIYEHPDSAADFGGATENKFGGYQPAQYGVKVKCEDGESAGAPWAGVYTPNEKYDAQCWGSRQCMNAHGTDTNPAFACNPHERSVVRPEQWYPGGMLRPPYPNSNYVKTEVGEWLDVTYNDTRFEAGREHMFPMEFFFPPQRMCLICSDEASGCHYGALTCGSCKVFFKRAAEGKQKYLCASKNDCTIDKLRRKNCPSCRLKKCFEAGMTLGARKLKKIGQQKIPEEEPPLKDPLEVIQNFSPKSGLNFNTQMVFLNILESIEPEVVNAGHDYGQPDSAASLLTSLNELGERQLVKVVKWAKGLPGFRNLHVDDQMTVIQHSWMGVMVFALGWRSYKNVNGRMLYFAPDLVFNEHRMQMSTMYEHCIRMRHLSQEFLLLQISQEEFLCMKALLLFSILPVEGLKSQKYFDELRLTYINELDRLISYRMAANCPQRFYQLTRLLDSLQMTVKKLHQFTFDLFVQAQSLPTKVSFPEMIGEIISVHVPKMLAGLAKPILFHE
Experimental: The excised AR pBK CMV clones were digested with XbaI and EcoRI and the inserts were gel purified prior to ligation into the pCMV-TNT vector (Promega) between XbaI and EcoRI. […] AR was expressed by introducing the pCMV-TNT into the TNT coupled reticulocyte lysate system (Promega) according to the manufacturer's instructions. The size of the expressed products was determined by addition of S^35-methionin to the reticulocyte lysate system. The obtained protein suspension was analyzed on a denaturing 8% SDS PAGE and the sizes were determined using prestained SDS-PAGE broad range protein molecular weight standard (Bio-Rad) and a control luciferase protein of 62 kDa included in the reticulocyte lysate system (Promega). For use in binding assays AR was expressed in the absence of radioactive S^35-methionein and stored at 4°C until further used in recombinant binding assay experiments.
as §1

[6] = test system: spiggin mRNA in adult female stickleback kidney; experiment: Induction of spiggin mRNA in stickleback kidney after steroid implants (slot blot); format: in vivo, three-spined stickleback (Gasterosteus aculeatus)
Experimental: as §2, §3

[7] = test system: spiggin mRNA in adult female stickleback kidney; conditions: cited from earlier work

| Compound | binding observed (competition for [3H]-DHT) [1] | regulation of AR mRNA (slot blot) [4] | regulation of AR protein (radioreceptor assay) [4] | further results |
| --- | --- | --- | --- | --- |
| C[C@@H](O)[C@@]1(O)CC[C@H]2[C@@H]3CCC4=CC(=O)CC[C@]4(C)[C@H]3CC[C@@]21C [17,20β-P, 17,20β-dihydroxy-4-pregnen-3-one] | not | – | – | – |
| CC12CCC(=O)C=C1CCC1C2CCC2(C)C1CCC2(O)C(O)CO (stereo not drawn) [20β-S, 17,20β,21-trihydroxy-4-pregnen-3-one] | not | – | – | – |
| C[C@]12CCC(=O)C[C@@H]1CC[C@@H]1[C@@H]2CC[C@]2(C)[C@@H](O)CC[C@@H]12 [DHT, 5α-dihydrotestosterone] | – | None of the three tested androgens regulated | None of the three tested androgens regulated | IC50 [2]: 0.6 nM; induction of luciferase activity ([3]; HepG2 cells): 4.1 fold; induction of luciferase activity ([3]; ZFL cells): 4.5 fold |
| C[C@]12CC[C@@H]3c4ccc(O)cc4CC[C@H]3[C@@H]1CC[C@@H]2O [E2, 17β-estradiol] | – | repressor | repressor | EC50 ([5]; read-out: EC50 (competition for [3H]-DHT binding)): 64.61 ± 0.28 nM |
| C[C@]12CCC(=O)C=C1CC[C@@H]1[C@@H]2[C@@H](O)C[C@@]2(C)[C@H]1CC[C@]2(O)C(=O)CO [F, cortisol] | not | – | – | binding (competition for [3H]-DHT) [5]: poor binding |
| C[C@]12CCC(=O)C=C1CC[C@@H]1[C@@H]2C(=O)C[C@]2(C)C(=O)CC[C@@H]12 [KA, 11-ketoandrostenedione] | – | None of the three tested androgens regulated | None of the three tested androgens regulated | effectiveness at increasing kidney spiggin mRNA levels relative to T ([6]; 25 μg implant dose, females): 50 times; increase in spiggin mRNA levels ([6]; females implanted with 25 μg KA, 2 days, versus control): 30 fold; spiggin mRNA induction after longer exposures ([7]; 16 days exposure): only observed with KA |
| C[C@]12CC[C@H]3[C@@H](CCC4=CC(=O)CC[C@@]43C)[C@@H]1CC[C@@H]2O [T, testosterone] | – | None of the three tested androgens regulated | None of the three tested androgens regulated | spiggin induction ([6]; 1 μg implant dose, females): not inducing spiggin production |
| CC(C)C(=O)Nc1ccc([N+](=O)[O-])c(C(F)(F)F)c1 [flutamide] | – | – | – | blocking of androgen induction of spiggin protein and mRNA synthesis ([7]; anti-androgen, ref 25 and Olsson, Berg, Lindberg, unpublished results): can be blocked |

— article PMC1192819, “Molecular cloning and characterization of a nuclear androgen receptor activated by 11-ketotestosterone” (Reproductive biology and endocrinology : RB&E, 2005)
